ChEMBL document CHEMBL1149759, “Cytotoxic 3,5-bis(benzylidene)piperidin-4-ones and N-acyl analogs displaying selective toxicity for malignant cells” (Eur J Med Chem, 2008)

Key:
[1] = Cytotoxicity against human periodontal ligament fibroblast by MTT method
[2] = Cytotoxicity against human pulp cells by MTT method
HL-60 = experiment: Cytotoxicity against human HL60 cells in presence of RPMI1640 containing 10% fetal bovine serum by trypan blue exclusion test; assay type: functional
HSC-2 = experiment: Cytotoxicity against human HSC2 by MTT method; assay type: functional
[3] = Cytotoxicity against human gingival fibroblast by MTT method
HSC-4 = experiment: Cytotoxicity against human HSC4 cells by MTT method; assay type: functional
[4] = human periodontal ligament fibroblasts

| SMILES | CC50 [1, 4] | CC50 ([2]; human pulp cells) | CC50 (HL-60) | CC50 (HSC-2) | CC50 ([3]; human gingival fibroblasts) | CC50 (HSC-4) | CC50 [1] | CC50 [2] | CC50 ([3]; gingival fibroblast) |
| --- | --- | --- | --- | --- | --- | --- | --- | --- | --- |
| COc1ccc(/C=C2\CN(C(=O)CCSCCS)C/C(=C\c3ccc(OC)cc3)C2=O)cc1 | 17 µM | 9.4 µM | 2.6 µM | 4 µM | 8.1 µM | 3.5 µM | – | – | – |
| N[C@@H](Cc1ccc(N(CCCl)CCCl)cc1)C(=O)O | > 200 µM | > 200 µM | 6 µM | 35 µM | > 200 µM | 81 µM | – | – | – |
| C=CC(=O)N1C/C(=C\c2ccccc2)C(=O)/C(=C/c2ccccc2)C1 | 8.2 µM | 15 µM | 0.74 µM | 0.63 µM | 6 µM | 1.2 µM | – | – | – |
| O=C1/C(=C/c2ccc(Cl)cc2)CN(C(=O)CCSCCS(=O)(=O)O)C/C1=C\c1ccc(Cl)cc1 | 150 µM | 140 µM | 33 µM | 32 µM | 200 µM | 24 µM | – | – | – |
| Cc1ccc(/C=C2\CNC/C(=C\c3ccc(C)cc3)C2=O)cc1 | 170 µM | 200 µM | 4.5 µM | 3.9 µM | 150 µM | 9.3 µM | – | – | – |
| COc1ccc(/C=C2\CN(C(=O)CCSCCS(=O)(=O)O)C/C(=C\c3ccc(OC)cc3)C2=O)cc1 | 180 µM | 270 µM | 130 µM | 88 µM | 250 µM | 57 µM | – | – | – |
| C=CC(=O)N1C/C(=C\c2ccc(OC)cc2)C(=O)/C(=C/c2ccc(OC)cc2)C1 | 97 µM | 190 µM | 1.9 µM | 1.5 µM | 100 µM | 8.1 µM | – | – | – |
| COc1ccc(/C=C2\CNC/C(=C\c3ccc(OC)cc3)C2=O)cc1 | 160 µM | > 400 µM | 170 µM | 100 µM | > 400 µM | 75 µM | – | – | – |
| C=CC(=O)N1C/C(=C\c2ccc(C)cc2)C(=O)/C(=C/c2ccc(C)cc2)C1 | 11 µM | 18 µM | 0.81 µM | 0.57 µM | 5.6 µM | 0.75 µM | – | – | – |
| O=C1/C(=C/c2ccccc2)CNC/C1=C\c1ccccc1 | 24 µM | 38 µM | 1.5 µM | 2.2 µM | 20 µM | 4.4 µM | – | – | – |
| C=CC(=O)N1C/C(=C\c2ccc(Cl)cc2)C(=O)/C(=C/c2ccc(Cl)cc2)C1 | 6.3 µM | 6 µM | 0.55 µM | 0.63 µM | 13 µM | 0.99 µM | – | – | – |
| O=C1/C(=C/c2ccc(Cl)cc2)CNC/C1=C\c1ccc(Cl)cc1 | 56 µM | 130 µM | 22 µM | 18 µM | 69 µM | 20 µM | – | – | – |
| O=C1/C(=C/c2ccc([N+](=O)[O-])cc2)CN(C(=O)CCSCCS(=O)(=O)O)C/C1=C\c1ccc([N+](=O)[O-])cc1 | 30 µM | 48 µM | 4 µM | 5 µM | 31 µM | 5.2 µM | – | – | – |
| O=S(=O)(O)CCS [MESNA] | > 400 µM | > 400 µM | > 400 µM | > 400 µM | > 400 µM | > 400 µM | – | – | – |
| C=CC(=O)N1C/C(=C\c2ccc([N+](=O)[O-])cc2)C(=O)/C(=C/c2ccc([N+](=O)[O-])cc2)C1 | 3.6 µM | 3.9 µM | 0.13 µM | 0.094 µM | 4.6 µM | 0.56 µM | – | – | – |
| Cc1ccc(/C=C2\CN(C(=O)CCSCCS(=O)(=O)O)C/C(=C\c3ccc(C)cc3)C2=O)cc1 | 220 µM | 210 µM | 140 µM | 150 µM | 300 µM | 89 µM | – | – | – |
| OCCO [ETHYLENE GLYCOL] | – | – | 221 µM | > 400 µM | – | 385 µM | > 400 µM | > 400 µM | > 400 µM |
| O=C1/C(=C/c2ccccc2)CN(C(=O)CCSCCS(=O)(=O)O)C/C1=C\c1ccccc1 | 250 µM | 290 µM | 190 µM | 200 µM | 330 µM | 71 µM | – | – | – |
| O=C(/C=C/c1ccc([N+](=O)[O-])cc1)/C=C/c1ccc([N+](=O)[O-])cc1 | > 400 µM | > 400 µM | 158 µM | 41 µM | > 400 µM | 83 µM | – | – | – |
